Results taken from patent US12691183B2, “Methods of making and using nanoparticles for treatment of bacterial biofilm” (Brown University, priority 2022, dated 2026).
Where a name gives a salt, the structure may show the parent alone.

Legend:
HUVEC = assay: CCK-8 cytotoxicity assay, HUVEC; assay type: cell-based, human; conditions: 50 μg/mL Doxy, 24 hour
Method: (§1) The cytotoxicity of each NP formulation was evaluated for HUVEC and […] using a CCK-8 viability assay. Briefly, HUVEC and NIH 3T3 cells were cultured at a density of ~5000 cells/cm^2 in EGM-2 endothelial cell growth medium and DMEM supplemented with 10% (v/v) FBS and 1% (v/v) penicillin/streptomycin, respectively at 37° C. with 5% CO2. After 24 hours, cells were treated with Doxy, Doxy-GNPs, CS-Doxy-GNP and HA-CS-Doxy-GNP at a Doxy concentration of 50 μg/mL in the respective media. Cells treated with media only and wells containing no cells or NPs were included as PCs and NCs, respectively. Following a 24 hour incubation, the media was removed, cells were rinsed with 1×PBS three times and 10 μL of CCK-8 solutions was added to each well. After incubation for 4 hours at 37° C. with 5% CO2, the absorbance was read at 450 nm (OD450) using a plate reader. Normalized cell viability was calculated using the following equation. [formula]

V. vulnificus biofilm [1] = assay: Eradication of mature biofilm, crystal violet assay; assay type: cell-based; conditions: reduces initial biomass of 48 h mature biofilm by 90%, 24 h treatment
Method: Unless otherwise noted, all biofilm experiments utilized the following procedure for the formation of a 48 h matured biofilm. V. vulnificus inoculated LB medium was incubated for 18 h with shaking (100 rpm) at 37° C. This bacteria suspension was dilute 1:500 (v/v) in LB media supplemented with 2% w/v NaCl (LB S) at pH 5.5. The optical density of the bacteria suspension at 600 nm (OD600) was monitored overtime. Once in its logarithmic growth phase (OD600=0.1, which is ~1.5×10^7 CFU/mL), biofilms were formed by static incubation of bacteria at 37° C. for 48 hours either in chamber slides of multi-well plates. Every 24 hours, the biofilms were gently washed three times with 1×PBS and add fresh LBS was added.
(§2) The effect of treatment with free Doxy, Doxy-GNP, CS-Doxy-GNP, and HA-CS-Doxy-GNP of 48 h aged V. vulnificus biofilms was assessed by examining biofilm morphology and quantifying biomass and cell viability. Morphology assessment via ESEM, LIVE/DEAD viability staining, colony enumeration and crystal violet staining were performed after incubation of the biofilms with the various treatment groups at a Doxy concentration of 50 μg/mL in 1×PBS or with a 1×PBS control for 24 hours at 37° C.
Biofilm biomass was assessed for 48 h mature biofilms formed in 96-well plates. […] Following 24 hours of incubation, the biofilm biomass was quantified using crystal violet staining as described earlier.

V. vulnificus biofilm [2] = assay: Colony counting assay of treated mature biofilm; assay type: cell-based; conditions: 50 μg/mL Doxy, 24 h
Method: as §2, with “C. Colony enumeration was also conducted by first dispersing biofilms formed in 48-well plates by sonication following treatment. Each sample was then serially diluted in LB, and […] of the dilution was plated onto LB agar plates. Agar plates were imaged and CFU were counted following incubation for 24 h at 37° C.” for “C.”

V. vulnificus [3] = assay: MIC microdilution assay against planktonic bacteria; assay type: cell-based; conditions: Vibrio vulnificus, 16-18 hours, Doxy or loaded Doxy concentration
Method: The minimum inhibitory concentrations (MICs) of NPs against V. vulnificus were determined using the microdilution assay as previously reported. See T. Gwisai, N. R. Hollingsworth, S. Cowles, N. Tharmalingam, E. Mylonakis, B. B. Fuchs and A. Shukla, Biomedical Materials, 2017, 12, 045010; D. Alkekhia and A. Shukla, Journal of Biomedical Materials Research Part A, 2019, 107, 1324-1339. Free Doxy and Doxy loaded NPs were diluted 2-fold in LB in 96-well plates to obtain concentrations of Doxy or loaded Doxy ranging from 0.03-4.0 μg/mL. V. vulnificus in LB media in its logarithmic growth phase was added to each well at a final concentration of 1×10^5 colony forming units (CFU)/mL. Positive control (PC) of bacteria cultured in LB only and negative control (NC) of LB without bacteria were included. After 16-18 hours of shaking (100 rpm) at 37° C., OD600 was measured using a plate reader. The normalized bacteria density (%) was calculated as follows: […]

V. vulnificus [4] = assay: Ex vivo pig skin infection model; assay type: cell-based
Method: Frozen porcine skin tissue was thawed and washed with 1×PBS. A biopsy punch (8 mm) was used to create tissue sections from freshly thawed tissue. A 1.5-mm deep well was created in the center of each of these skin samples using a smaller 3-mm biopsy punch. The tissue pieces were sterilized by immersing in 70% (v/v) ethanol for 2 hours and drying for 30 minutes in a CellGard™ Energy Saver class II, type A2 biosafety cabinet (NuAire, Plymouth, MN). The sterile tissue was then placed on soft TSB agar plates containing 0.5% (w/v) agar with 100 μg/mL vancomycin. Note that vancomycin was included as a common antibiotic against gram-positive to prevent contamination by non-V. vulnificus bacteria. The skin was then infected by adding 10 μL of V. vulnificus suspension (OD600=0.1) in the 3 mm diameter well in each sample. The inoculated skin pieces were incubated for 48 hours at 37° C. in a humidified chamber. The tissue samples were transferred to a new agar plate every 24 hours. At 48 hours, 15 μL of Doxy or HA-CS-Doxy-GNP at a Doxy concetration of 10, 50 or 100 μg/mL was added to the infected skin samples and incubated for a further 24 hours. Controls of tissue inoculated with bacteria treated with LBS at pH 5.5 only and tissue without bacteria treated with LBS at pH 5.5 were included as controls. […]

NIH 3T3 cells = assay: CCK-8 cytotoxicity assay, NIH 3T3; assay type: cell-based, mouse; conditions: NIH 3T3, 50 μg/mL Doxy, 24 hour
Method: as §1

V. vulnificus biofilm [5] = assay: Inhibition of biofilm formation, crystal violet staining; assay type: cell-based; conditions: inhibits biofilm formation by 80%, 24-hour incubation
Method: The investigate the effect of free Doxy and Doxy-loaded NPs on V. vulnificus biofilm formation, V. vulnificus was prepared for biofilm formation. When adding the bacteria in its logarithmic growth phase to 96-well plates, free Doxy or Doxy-loaded NPs were added simultaneously at varying concentrations. Bacteria lacking Doxy treatment were included as a PC and LBS without bacteria was included as a NC. Following a 24-hour incubation in static conditions, the biofilm biomass was quantified using crystal violet staining. Briefly, the supernatant media was gently removed, and biofilms were washed three times with 1×PBS. Next biofilms were stained with 200 μL 0.1% (w/v) crystal violet in 1×PBS for 15 minutes, followed by three 1×PBS washes. The stain was eluted by incubation with 200 μL of 100% ethanol with shaking (100 rpm) for 2 min at RT. The absorbance at 570 nm (OD570) was measured using a plate reader. Normalized biofilm biomass was calculated as follows: [formula]

SMILES: C[C@H]1c2cccc(O)c2C(=O)C2=C(O)[C@]3(O)C(=O)C(C(N)=O)=C(O)[C@@H](N(C)C)[C@@H]3[C@@H](O)[C@@H]21 [Doxy, doxycycline hydrochloride]
- cell viability (HUVEC): about 60%
- MBEC90 (V. vulnificus biofilm [1]): about 50 μg/mL
- reduction in CFU compared to no treatment control (V. vulnificus biofilm [2]): 2 log reduction
- MIC (V. vulnificus [3]): 0.5 µg/mL
- number of living bacterial cells compared with untreated pig skin (V. vulnificus [4]; 50 μg/mL or 100 μg/mL Doxy, 24 hours): significantly reduced
- mean value of CFU/mL relative to untreated samples (100%) (V. vulnificus [4]; 2 days infection, 24 hours treatment, 100 μg/mL Doxy): 16.42%
- cell viability (NIH 3T3 cells): about 70%
- MBIC80 (V. vulnificus biofilm [5]): about 16 μg/mL
